# PubChem BioAssay (NCI)
#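 Here, GI50 denotes the concentration required for 50% inhibition of growth. TGI: total growth inhibition.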
# Legend:
# Test in all cases: NCI-60 cell line screen, 384-well format
# [1] = system: MALME-3M melanoma
# [2] = system: SN12C renal
# [3] = system: SK-MEL-28 melanoma
# [4] = system: OVCAR-5 ovarian
# [5] = system: 786-0 renal
# [6] = system: MOLT-4 leukemia
# [7] = system: SF-295 CNS
# [8] = system: HCT-116 colon
# [9] = system: SR leukemia
# [10] = system: UACC-62 melanoma
# [11] = system: M14 melanoma
# [12] = system: OVCAR-4 ovarian
# [13] = system: HL-60(TB) leukemia
# [14] = system: NCI-H322M lung
# [15] = system: U251 glioblastoma
# [16] = system: NCI/ADR-RES ovarian
# [17] = system: HOP-62 NSCLC
# [18] = system: PC-3 prostate
# [19] = system: SK-MEL-2 melanoma
# [20] = system: OVCAR-3 ovarian
# [21] = system: A549 NSCLC
# [22] = system: NCI-H226 lung
# [23] = system: KM12 colon
# [24] = system: SF-539 CNS
# [25] = system: NCI-H23 lung
# [26] = system: BT-549 breast
# [27] = system: HCT-15 colon
# [28] = system: OVCAR-8 ovarian
# [29] = system: TK-10 renal
# [30] = system: COLO 205 colon
# [31] = system: UACC-257 melanoma
# [32] = system: MDA-MB-231 breast
# [33] = system: ACHN renal
# [34] = system: DU-145 prostate
# [35] = system: MDA-MB-435 melanoma
# [36] = system: RPMI-8226 leukemia
# [37] = system: NCI-H522 lung
# [38] = system: SNB-75 CNS
# [39] = system: MDA-MB-468 breast
# [40] = system: SF-268 CNS
# [41] = system: CAKI-1 renal
# [42] = system: SK-MEL-5 melanoma
# [43] = system: HS 578T breast
# [44] = system: CCRF-CEM leukemia
# [45] = system: NCI-H460 NSCLC
# [46] = system: IGROV1 ovarian
# [47] = system: RXF 393 renal
structure (smiles),measurement,setting,value
CC[C@H](NC(=O)[C@H](CS(=O)(=O)CC1CC1)N[C@@H](c1ccc(F)cc1)C(F)(F)F)C(=O)C(=O)NC1CC1,GI50,[1],> 100 µM
same,TGI,[1],> 100 µM
same,GI50,[2],> 100 µM
same,TGI,[2],> 100 µM
same,GI50,[3],> 100 µM
same,TGI,[3],> 100 µM
same,GI50,[4],> 100 µM
same,TGI,[4],> 100 µM
same,GI50,[5],> 100 µM
same,TGI,[5],> 100 µM
same,GI50,[6],29.5 µM
same,TGI,[6],> 100 µM
same,GI50,[7],> 100 µM
same,TGI,[7],> 100 µM
same,GI50,[8],> 100 µM
same,TGI,[8],> 100 µM
same,GI50,[9],19.3 µM
same,TGI,[9],74.5 µM
same,GI50,[10],> 100 µM
same,TGI,[10],> 100 µM
same,GI50,[11],> 100 µM
same,TGI,[11],> 100 µM
same,GI50,[12],> 100 µM
same,TGI,[12],> 100 µM
same,GI50,[13],84.2 µM
same,TGI,[13],> 100 µM
same,GI50,[14],> 100 µM
same,TGI,[14],> 100 µM
same,GI50,[15],> 100 µM
same,TGI,[15],> 100 µM
same,GI50,[16],> 100 µM
same,TGI,[16],> 100 µM
same,GI50,[17],98.8 µM
same,TGI,[17],> 100 µM
same,GI50,[18],> 100 µM
same,TGI,[18],> 100 µM
same,GI50,[19],> 100 µM
same,TGI,[19],> 100 µM
same,GI50,[20],> 100 µM
same,TGI,[20],> 100 µM
same,GI50,[21],> 100 µM
same,TGI,[21],> 100 µM
same,GI50,[22],> 71.7 µM
same,TGI,[22],> 100 µM
same,GI50,[23],> 100 µM
same,TGI,[23],> 100 µM
same,GI50,[24],> 100 µM
same,TGI,[24],> 100 µM
same,GI50,[25],> 100 µM
same,TGI,[25],> 100 µM
same,GI50,[26],> 100 µM
same,TGI,[26],> 100 µM
same,GI50,[27],> 100 µM
same,TGI,[27],> 100 µM
same,GI50,[28],> 100 µM
same,TGI,[28],> 100 µM
same,GI50,[29],> 100 µM
same,TGI,[29],> 100 µM
same,GI50,[30],> 100 µM
same,TGI,[30],> 100 µM
same,GI50,[31],> 100 µM
same,TGI,[31],> 100 µM
same,GI50,[32],> 100 µM
same,TGI,[32],> 100 µM
same,GI50,[33],> 100 µM
same,TGI,[33],> 100 µM
same,GI50,[34],> 100 µM
same,TGI,[34],> 100 µM
same,GI50,[35],> 100 µM
same,TGI,[35],> 100 µM
same,GI50,[36],77.2 µM
same,TGI,[36],> 100 µM
same,GI50,[37],> 100 µM
same,TGI,[37],> 100 µM
same,GI50,[38],> 89.5 µM
same,TGI,[38],> 100 µM
same,GI50,[39],22.8 µM
same,TGI,[39],67.5 µM
same,GI50,[40],> 51.4 µM
same,TGI,[40],> 93.9 µM
same,GI50,[41],> 100 µM
same,TGI,[41],> 100 µM
same,GI50,[42],> 100 µM
same,TGI,[42],> 100 µM
same,GI50,[43],> 100 µM
same,TGI,[43],> 100 µM
same,GI50,[44],60.9 µM
same,TGI,[44],> 100 µM
same,GI50,[45],> 100 µM
same,TGI,[45],> 100 µM
same,GI50,[46],> 100 µM
same,TGI,[46],> 100 µM
same,GI50,[47],> 88.2 µM
same,TGI,[47],> 100 µM
